# Assay results: US20020111373A1, “Hydrochloride salt of a fused heterocyclic compound” (SANKYO COMPANY, LIMITED, priority 1999, published 2002)
# How the values were obtained:
# [1] = Solubility experiment in 1st fluid of Japanese Pharmacopeia; type: physicochemical; conditions: 37° C.; for solubility at 1 h: pH 1.2, simulated gastric fluid, thermodynamic from solid, 40 mg in 200 ml 1st fluid of Japanese Pharmacopeia, HPLC, read-out: Solubility 1.0 hour later
# Experimental: To 200 ml of the 1st fluid of Japanese Pharmacopeia (1000 ml solution made by mixing 2.0 g of sodium chloride with 7.0 ml of hydrochloric acid and water) were added 40 mg of Compound A or Compound B, and the mixture was stirred with a stirrer at 37° C. in a 300 ml conical beaker. One hour later, 10 ml of the sample were filtered through Acrodisk LC13 (PVDF, manufactured by German Science Co.). The initial 3 ml were discarded, and the following 7 ml were taken into a test tube. Of this sample, 5 ml were taken accurately with a whole pipette and added to 2 ml of methanol accurately measured in advance in a test tube.
# The quantity was measured by HPLC and the solubility was decided from a calibration curve made according to the following procedure.
# The calibration curve was made by preparing a methanolic standard solution of Compound A at a concentration of 400 μg/ml, 100 μg/ml and 20 μg/ml, mixing each 2 ml of the standard solution with 5 ml of the 1st fluid of Japanese Pharmacopeia and determined by HPLC.
# Analytical column: L-column ODS (4.6 mm ID×15 cm, manufactured by Chemicals Evaluation Research Institute Japan)
# Mobile phase: 0.01 mol/L acetic acid buffer solution (pH 5.0)/acetonitrile mixture (13:7)
# Flow rate: about 1.0 ml/min.
# Column temperature: 40° C.
# Detector: ultraviolet absorptiometer (measuring wavelength: 290 nm)
# [2] = tested on: spontaneously diabetic rats (ZDF/Gmi-fa/fa); test: Blood sugar lowering activity test in spontaneously diabetic rats; type: in vivo, rat; conditions: for Blood Sugar Level: male ZDF/Gmi-fa/fa rats, average of 6
# Experimental: Male spontaneously diabetic rats (ZDF/Gmi-fa/fa) which were 8-10 weeks old were used.
# The test compound was suspended in 0.5% CMC solution, and a dose of 0.33 mg/ml/kg was orally administered consecutively for 2 weeks under compulsion. The blood sugar level was measured in a conventional manner. Thus, the tail end (about 1 mm) of rat was cut, and the blood was collected with a hematocrit tube treated with heparin for anti-coagulation and centrifuged. The resultant plasma was measured with Glucoloader F (A&T).
# [3] = 3 Days, 0.33 mg/ml/kg orally, consecutive dosing
# [4] = 7 Days, 0.33 mg/ml/kg orally, consecutive dosing
# [5] = 14 Days, 0.33 mg/ml/kg orally, consecutive dosing
SMILES,solubility at 1 h [1],Blood Sugar Level ([2]; 0 Hour (baseline)),"Blood Sugar Level [2, 3]","Blood Sugar Level [2, 4]","Blood Sugar Level [2, 5]","solubility (comparison in words) ([1]; from Table 2, 1st fluid of Japanese Pharmacopeia)","hypoglycemic activity (comparison in words) ([2]; from Table 1, ZDF/Gmi-fa/fa rats, 0.33 mg/ml/kg orally for 2 weeks)"
"COc1ccc2nc(COc3ccc(CC4SC(=O)NC4=O)cc3)n(C)c2c1 (stereo not drawn) [Compound B, 5-[4-(6-methoxy-1-methyl-1H-benzimidazol-2-ylmethoxy)benzyl]-thiazolidin-2,4-dione, reference compound]",41 µg/mL,456 mg/dL,379 mg/dL,409 mg/dL,535 mg/dL,,
"COc1ccc2nc(COc3ccc(CC4SC(=O)NC4=O)cc3)n(C)c2c1.Cl (stereo not drawn) [Compound A, 5-[4-(6-methoxy-1-methyl-1H-benzimidazol-2-ylmethoxy)benzyl]thiazolidin-2,4-dione hydrochloride]",86.4 µg/mL,456 mg/dL,228 mg/dL,206 mg/dL,207 mg/dL,markedly better solubility than Compound B,more excellent hypoglycemic activity than Compound B
